Test results published in patent US6548539B1, “Agents for regulation of colon cancer gene expression” (Avalon Pharmaceuticals, priority 2001, dated 2003).

Tests used:
Type in all cases: cell-based, human
Settings in all cases: HT29 cell line (colon tumor), compound 10 μM, 24 hours, vs control
Gene 2 = test: Gene modulating activity in colon cancer cells (RT-PCR RNA expression), Gene 2
Description: (§1) In such assays, primary cells, or tissue samples, are maintained in growth medium and are treated with compounds at a single concentration (10 μM for the data of Table 1) or at a range of concentrations (such as from 1 μM up to 100 μM). At specific times after treatment at the given concentration of test compound, cellular RNAs are isolated from the treated cells, primary cells or tumors, which RNAs are indicative of expression of selected genes, including, but not limited to, the genes used herein. The cellular RNA is then divided and subjected to analysis that detects the presence and/or quantity of specific RNA transcripts, which transcripts may then be amplified for detection purposes using standard methodologies, such as, for example, reverse transcriptase polymerase chain reaction (RT-PCR), etc. The presence or absence, or levels, of specific RNA transcripts are determined from these measurements and a metric derived for the type and degree of response of the sample to the treated compound compared to control samples. One such procedure is shown in example 8 where test compound may or may not be present.
For example, Gene 2 was a gene that encodes a kallikrein. Tissue or glandular kallikreins are members of a large and highly conserved family of serine proteases that are central to many physiological processes. They are secreted protein-cleaving enzymes that process for example kininogen (local blood flow, sodium balance, inflammation, cell proliferation), growth factors (EGF, NGF, vasoactive peptide), or other substrates. The prostate antigens hK2 and PSA are members of this family. Diseases in which kallikreins have been implicated include acute pancreatitis, inflammatory arthritis and inflammatory bowel disease, sepsis, enterocolitis, arterial and salt-sensitive hypertension, blood coagulation disorders, scorpion and snake evenomation, infections and cancer. Thus, the chemical agents disclosed herein find use in the treatment and/or prevention of any of these diseases.
(§2) HT29 cells are grown to a density of 10^5 cells/cm^2 in Leibovitz's L-15 medium supplemented with 2 mM L-glutamine (90%) and 10% fetal bovine serum. The cells are collected after treatment with 0.25% trypsin, 0.02% EDTA at 37° C. for 2 to 5 minutes. The trypsinized cells are then diluted with 30 ml growth medium and plated at a density of 50,000 cells per well in a 96 well plate (200 μl/well). The following day, cells are treated with either compound buffer alone, or compound buffer containing a chemical agent to be tested, for 24 hours. The media is then removed, the cells lysed and the RNA recovered using the RNAeasy reagents and protocol obtained from Qiagen. […] Reverse transcription is then carried out at 48° C. for 30 minutes. The sample is then applied to a Perlin Elmer 7700 sequence detector and heat denatured for 10 minutes at 95° C. Amplification is performed through 40 cycles using 15 seconds annealing at 60° C. followed by a 60 second extension at 72° C. and 30 second denaturation at 95° C. Data files are then captured and the data analyzed with the appropriate baseline windows and thresholds.
(§3) For testing of the effects of a compound of Table 1, each compound was present at a concentration of 10 μM in the culture medium.
The quantitative difference between the target and reference genes is then calculated and a relative expression value determined for all of the samples used. This procedure is then repeated for each of the target genes in a given signature, or characteristic, set and the relative expression ratios for each pair of genes is determined (i.e., a ratio of expression is determined for each target gene versus each of the other genes for which expression is measured, where each gene's absolute expression is determined relative to the reference gene for each compound, or chemical agent, to be screened). […]

Gene 1 = test: Gene modulating activity in colon cancer cells (RT-PCR RNA expression), Gene 1
Description: as §1, §2, §3
(§4) The quantitative difference between the target and reference genes is then calculated and a relative expression value determined for all of the samples used. This procedure is then repeated for each of the target genes in a given signature, or characteristic, set and the relative expression ratios for each pair of genes is determined (i.e., a ratio of expression is determined for each target gene versus each of the other genes for which expression is measured, where each gene's absolute expression is determined relative to the reference gene for each compound, or chemical agent, to be screened). The samples are then scored and ranked according to the degree of alteration of the expression profile in the treated samples relative to the control. The overall expression of the set of genes relative to the controls, as modulated by one chemical agent relative to another, is also readily ascertained. Chemical agents having the most effect on a given gene, or set of genes, are considered the most therapeutic or anti-neoplastic, depending on the tissues being studied. In each case, the agent was present in the cell culture at a concentration of ten micromolar.
(§5) The sets of genes, or signature sets, useful in the methods of the invention disclosed herein represent a set of genes expressed at a higher level in a cancer cell line derived from colon but not expressed at a higher level in normal colon (for example, genes 1, 2, 4-10 for the data of Table 1) or whose expression is higher in normal cells (for example, genes 3 and 11 for the data of Table 1) relative to the cancer cells. […]

Gene 9 = test: Gene modulating activity in colon cancer cells (RT-PCR RNA expression), Gene 9
Description: as §1, §2, §3, §4, §5

Gene 5 = test: Gene modulating activity in colon cancer cells (RT-PCR RNA expression), Gene 5
Description: as §1, §2, §3, §4, §5

Gene 8 = test: Gene modulating activity in colon cancer cells (RT-PCR RNA expression), Gene 8
Description: as §1, §2, §3, §4, §5

Gene 7 = test: Gene modulating activity in colon cancer cells (RT-PCR RNA expression), Gene 7
Description: as §1, §2, §3, §4, §5

Gene 6 = test: Gene modulating activity in colon cancer cells (RT-PCR RNA expression), Gene 6
Description: as §1, §2, §3, §4, §5

Gene 11 = test: Gene modulating activity in colon cancer cells (RT-PCR RNA expression), Gene 11
Description: as §1, §2, §3
as §4, with “In each case, the agent was present in the cell culture at a concentration of ten micromolar.” left out

Gene 3 = test: Gene modulating activity in colon cancer cells (RT-PCR RNA expression), Gene 3
Description: as §1, §2, §3, §4, §5

Gene 4 = test: Gene modulating activity in colon cancer cells (RT-PCR RNA expression), Gene 4
Description: as §1, §2, §3, §4, §5

Gene 10 = test: Gene modulating activity in colon cancer cells (RT-PCR RNA expression), Gene 10
Description: as §1, §2, §3, §4, §5

| Compound | Gene 2 Folds of up (+) or down (−) regulatlon (Gene 2) [Folds] | Gene 1 Folds of up (+) or down (−) regulatlon (Gene 1) [Folds] | Gene 9 Folds of up (+) or down (−) regulatlon (Gene 9) [Folds] | Gene 5 Folds of up (+) or down (−) regulatlon (Gene 5) [Folds] | Gene 8 Folds of up (+) or down (−) regulatlon (Gene 8) [Folds] | Gene 7 Folds of up (+) or down (−) regulatlon (Gene 7) [Folds] | Gene 6 Folds of up (+) or down (−) regulatlon (Gene 6) [Folds] | Gene 11 Folds of up (+) or down (−) regulatlon (Gene 11) [Folds] | Gene 3 Folds of up (+) or down (−) regulatlon (Gene 3) [Folds] | Gene 4 Folds of up (+) or down (−) regulatlon (Gene 4) [Folds] | Gene 10 Folds of up (+) or down (−) regulatlon (Gene 10) [Folds] |
| --- | --- | --- | --- | --- | --- | --- | --- | --- | --- | --- | --- |
| CC(C)CN(C(=O)c1ccccc1)C1CCCC1Sc1ccccc1 (stereo not drawn) [AV-96] | 2.8 | 3.5 | 2.5 | 2.8 | 2.8 | 5.3 | −4.9 | 3.7 | 3.2 | 2.8 | 1.9 |
| CCCN(C(=O)c1ccccc1)C1CCCC1Sc1ccccc1 (stereo not drawn) [AV-221] | 1.4 | 64.0 | 1.2 | 1.5 | 1.6 | 90.5 | −1.1 | – | −3.5 | 1.4 | −6.5 |
| CN(C(=O)C1CCC1)C1CCCCC1Sc1ccccc1 (stereo not drawn) [AV-283] | −1.7 | −2.1 | −3.7 | −1.5 | −1.7 | −3.7 | −3.5 | −34.3 | −4.6 | −1.7 | −3.0 |
| CCCN(C(=O)Nc1ccc(-c2ccccc2)cc1)C1COCC1SC (stereo not drawn) [AV-916] | −1.1 | −2.1 | −6.5 | −1.2 | −3.0 | −1.2 | 1.0 | −3.7 | −8.0 | −1.3 | −8.6 |
| CSC1CCCC1NC(=O)Nc1cccc(Cl)c1 (stereo not drawn) [AV-988] | 2.3 | 2.6 | 1.3 | 1.9 | 1.7 | 1.2 | 2.0 | – | −11.3 | 1.9 | −4.6 |
| O=C(Nc1ccc(-c2ccccc2)cc1)N(Cc1ccccc1)C1CCCC1Sc1ccccc1 (stereo not drawn) [AV-1030] | 3.7 | 2.1 | −2.6 | 2.5 | −2.6 | −1.1 | 1.4 | −4.6 | −1.1 | 1.1 | −2.5 |
| COCCN(C(=O)COc1ccccc1)C1CCCC1Sc1ccccc1 (stereo not drawn) [AV-1241] | 1.7 | 1.9 | 9.2 | 1.2 | 2.1 | 26.0 | 2.8 | 27.9 | 29.9 | 2.0 | 13.0 |
